Data reported in US20200199190A1, “Calcitonin Mimetics for Treating Diseases and Disorders” (KeyBioscience AG, priority 2017, published 2020).
Entries after “also recorded” stand apart in the source; their conditions may differ. Ends that are not written are not given here.

Columns and labels:
Sprague Dawley Rats = test: Food intake in healthy Sprague Dawley rats after single s.c. dose; assay type: in vivo, rat; settings: single s.c. dose 2.5 μg/kg; for Food Intake ΔFOOD Sustained Attenuation Hours: SD rats fasted overnight, food intake monitored 0-4 h and 4-24 h; for reduction in food intake within the 4 hour interval / time to which the reduction in food intake was maintained (sustained effect) / size of reduction in food intake compared with the other tested peptides: SD rats; for reduction in food intake within the 4 hour interval: 0-4 hours; for time to which the reduction in food intake was maintained (sustained effect): intervals 0-4 and 4-24 hours; for size of reduction in food intake compared with the other tested peptides: FIG. 4A (KBP-046 to -054) and FIG. 4B (KBP-058 to -063)
Method: FIGS. 4A-43: Protracted attenuation of food intake in SD rats by KBP-046-KBP-054 (FIG. 4A) and KBP-058-KBP-063 (FIG. 4B). After single s.c dose of 2.5 μg/kg of KBP, food intake was monitored in intervals of 0-4 h and 4-24 h to assess the protracted action of individual KBPs. Individual rats were single caged, n=4 in each group.
Rats were single caged four days prior to individual tests. They were randomized by weight into seven groups (Vehicle (0.9% NaCl), KBPs (doses: 2.5 μg/kg). They were fasted overnight and then treated with a single dose of peptide or vehicle in the morning using subcutaneous administration. The food intake was monitored in the following intervals (0-4 hours and 4-24 hours).

Amylin Receptor (AMY-R) = target: T1, Amylin Receptor (AMY-R) (Homo sapiens, UniProt P30988); test: PathHunter β-arrestin recruitment dose response, amylin receptor activation (CHO-K1 CALCR RAMP3 cells); assay type: cell-based; settings: FIGS. 2A-2B
T1 construct: host or cells: CHO-K1
T1 sequence (P30988 25-474): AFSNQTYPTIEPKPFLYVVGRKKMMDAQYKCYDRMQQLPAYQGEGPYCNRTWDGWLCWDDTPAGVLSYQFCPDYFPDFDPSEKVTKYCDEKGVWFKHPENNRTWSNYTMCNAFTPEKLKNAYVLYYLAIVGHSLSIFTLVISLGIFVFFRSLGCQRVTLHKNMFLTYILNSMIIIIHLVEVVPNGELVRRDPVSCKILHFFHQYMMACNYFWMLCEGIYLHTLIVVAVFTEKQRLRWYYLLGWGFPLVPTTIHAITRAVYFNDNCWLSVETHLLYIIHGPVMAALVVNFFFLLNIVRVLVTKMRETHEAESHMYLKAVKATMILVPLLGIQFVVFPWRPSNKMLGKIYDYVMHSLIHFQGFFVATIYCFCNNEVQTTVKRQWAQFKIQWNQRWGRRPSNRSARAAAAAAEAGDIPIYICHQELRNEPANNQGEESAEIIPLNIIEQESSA
T1 sequence (O60896 24-148 partner): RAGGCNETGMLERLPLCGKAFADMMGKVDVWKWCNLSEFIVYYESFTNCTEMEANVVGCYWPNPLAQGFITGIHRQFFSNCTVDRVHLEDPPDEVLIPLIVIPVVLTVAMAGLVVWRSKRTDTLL
Method: FIGS. 2A-2B: β-arrestin recruitment dose response by KBP-046-KBP-054 (FIG. 2A) and KBP-058-KBP-063 (FIG. 2B) as a function of amylin receptor activation. Dose range is 1 μM to 15 μM and data is shown as fold of vehicle. Screening was conducted in CHO-K1 CALCR RAMP3 Pathhunter cells from DiscoveRx.
(§1) In the following examples, the following materials and methods were employed. The following cell lines expressing the calcitonin, amylin and CGRP receptors were purchased and cultured according to the manufacturer's instructions. • 1. Calcitonin Receptor (CTR): U2OS-CALCR from DiscoveRx (Cat. No.: 93-0566C3). • 2. Amylin Receptor (AMY-R): CHO-K1 CALCR+RAMP3 from DiscoveRx (Cat. No.: 93-0268C2). In independent bioassays, CTR and AMY-R cells were treated with for the indicated timepoints with increasing doses of KBPs identified in Tables 1A and 1B (1000, 250, 62.5, 15.6, 3.9, 1.0, 0.24, 0.06, 0.02 nM and vehicle).
(§2) PathHunter β-Arrestin GPCR assays are whole cell, functional assays that directly measure the ability of a ligand to activate a GPCR by detecting the interaction of β-Arrestin with the activated GPCR. Because β-arrestin recruitment is independent of G-protein signaling, these assays offer a powerful and universal screening and profiling platform that can be used for virtually any Gi-, Gs, or Gq-coupled receptor.
(§3) In this system, the GPCR is fused in frame with the small enzyme fragment ProLink™ and co-expressed in cells stably expressing a fusion protein of β-Arrestin and the larger, N-terminal deletion mutant of β-gal (called enzyme acceptor or EA). Activation of the GPCR stimulates binding of β-Arrestin to the ProLink-tagged GPCR and forces complementation of the two enzyme fragments, resulting in the formation of an active β-gal enzyme. This interaction leads to an increase in enzyme activity that can be measured using chemiluminescent PathHunter® Detection Reagents.
(§4) The assay was performed in white 384 well plates (Greiner Bio-One, 784080). Cells were seeded 2500 cells per well in 10 μL cell-type specific medium the day prior to the experiment. To quantify the GPCR-mediated β-arrestin recruitment the Pathhunter™ Detection Kit (93-0001, DiscoverX) was used and assay performed accordingly to the manufacturer's instructions. Furthermore, data from the Pathhunter™ β-arrestin recruitment assay was normalized to an internal standard to improve the distinction between top KBP performers and non-performers.

[1] = target: T2, Calcitonin Receptor (CTR) (Homo sapiens, UniProt P30988); test: Prolonged β-arrestin recruitment, calcitonin receptor activation over time (U2OS CALCR cells); assay type: cell-based; settings: single dose of 100 nM at t=0, read up to 72 hours, FIGS. 3A-3B
T2 construct: host or cells: U2OS
T2 sequence (P30988 25-474): T1 sequence (P30988 25-474)
Method: FIGS. 3A-3B: Prolonged β-arrestin recruitment by KBP-046-KBP-054 (FIG. 3A) and KBP-058-KBP-063 (FIG. 3B) and human calcitonin as a function of calcitonin receptor activation. Single dose of 100 nM at t=0 and after 3, 6, 24, and 72 hours after initial treatment, β-arrestin recruitment was assessed to investigate each ligands protracted potential. Data is shown as fold of vehicle. Screening was conducted in U2OS CALCR Pathhunter cells from DiscoveRx.
as §1, §2, §3, §4
Results are seen in FIGS. 1A-1B, 2A-2B and 3A-3B. […] This was done using the calcitonin receptor (CTR): U2OS-CALCR from DiscoveRx (Cat. No.: 93-0566C3) cell line, and as opposed to the classical three hour output, β-arrestin accumulation was conducted over 24, 48 and 72 hour and then analyzed.

Row | Substance | Food Intake ΔFOOD Sustained Attenuation Hours (Sprague Dawley Rats) [h] | amylin receptor activation (β-arrestin recruitment, fold of vehicle) (Amylin Receptor (AMY-R)) | protracted calcitonin receptor activation (prolonged β-arrestin recruitment, fold of vehicle) [1] | reduction in food intake within the 4 hour interval (Sprague Dawley Rats) | time to which the reduction in food intake was maintained (sustained effect) (Sprague Dawley Rats) [h] | size of reduction in food intake compared with the other tested peptides (Sprague Dawley Rats)
1 | KBP-059: Calcitonin mimetic peptide, Table 1 residues CGNLSTCMLGTYTQDLHKLHTFPKTDVGANAP (not fully specified; ends and bridges not checked) | 4 |  |  |  |  | 
2 | KBP-046: Calcitonin mimetic peptide, Table 1 residues CGNLSTCMLGTYTQDFHRLQTYPKTDVGANAP (not fully specified; ends and bridges not checked) | 4 |  |  |  |  | 
3 | CGNLSTCMLGRLSQDLNKFHTFPQTDVGANAP (not fully specified; ends and bridges not checked) [KBP-063, Calcitonin mimetic peptide] | 24 | potent amylin agonists | superior | reduction in food intake | 24 | far greater reduction in food intake
4 | KBP-060: Calcitonin mimetic peptide, Table 1 residues CGNLSTCMLGTYTQDFHRLQTFPQTDVGANAP | 4 |  |  |  |  | 
5 | KBP-054: Calcitonin mimetic peptide, Table 1 residues CGNLST, positions 7-8 blank, LGRYTQDFHKPQTFPKTDVGANAP | 4 |  |  |  |  | 
6 | CGNLSTCMLGRLSQDLNKFHTFPKTDVGANAP (not fully specified; ends and bridges not checked) [KBP-047, Calcitonin mimetic peptide] | 24 | potent amylin agonists | superior | reduction in food intake | 24 | largest reduction; also recorded: far greater reduction in food intake
7 | KBP-051: Calcitonin mimetic peptide, Table 1 residues CSNLSTCMLGRLSQDLHRLQTYPKTAIGVGAP (not fully specified; ends and bridges not checked) | 4 |  |  |  |  | 
8 | CGNLSTCMLGRLTQDLNKFHTFPKTDVGANAP (not fully specified; ends and bridges not checked) [KBP-062, Calcitonin mimetic peptide] | 24 | potent amylin agonists | superior | reduction in food intake | 24 | largest reduction; also recorded: top performance in the screening; also recorded: far greater reduction in food intake
9 | KBP-061: Calcitonin mimetic peptide, Table 1 residues CGNLSTCMLGTYTQDFHRLQTFPQTDVGANAP (printed identical to KBP-060) (not fully specified; ends and bridges not checked) | 4 |  |  |  |  | 
10 | KBP-052: Calcitonin mimetic peptide, Table 1 residues CSNLSTCMLGTYTQDFHRLQTYPKTAIGVGAP (not fully specified; ends and bridges not checked) | 4 |  |  |  |  | 
11 | CGNLSTCMLGRLTQDFHKLHTFPKTDVGANAP (not fully specified; ends and bridges not checked) [KBP-058, Calcitonin mimetic peptide] | 24 | potent amylin agonists | superior | reduction in food intake | 24 | far greater reduction in food intake
12 | KBP-050: Calcitonin mimetic peptide, Table 1 residues CGNLSTCMLGRLSQDLHRLQTYPKTAIGVGAP (not fully specified; ends and bridges not checked) | 4 |  |  |  |  | 
13 | CGNLSTCMLGRLTQDLHKLQTFPKTDVGANAP (not fully specified; ends and bridges not checked) [KBP-053, Calcitonin mimetic peptide] | 24 | potent amylin agonists | superior | reduction in food intake | 24 | far greater reduction in food intake
14 | KBP-048: Calcitonin mimetic peptide, Table 1 residues CGNLSTCMLGTYTQDFNKFNTFPKTDVGANAP | 4 |  |  |  |  | 
